The nature of series [1]: In vitro stability in pH 1.2 solution (USP Gastric fluid without enzymes). Conditions: 37° C.
Experimental: Sample collection: At 0, 0.17, 0.5, 1, 2, 4 and 6 h, 100 mL of aliquots were taken from the incubation mixture and placed into centrifuge tubes containing 100 μL of ice-cold acetonitrile and 1 μm internal standard where the reaction was terminated.
For series [2], the system named is hepatic steatosis induced by MCD diet. Nature of the series: Histological examination (H&E stain) of liver of MCD diet mice. It is filed as in vivo, Male C57BL/6 mice. Conditions: for Avg: average of Scores of the group; for Steatosis / Ballooning / Fibrosis / Inflammation / Steastosis: score per animal; for Steatosis: in PG/TPSG (1:1); for Scores: total score per animal. The procedure: (§1) Animals and experimental protocol: Male C57BL/6 mice, 4 weeks of age, were purchased from Laboratory Animal Center (Taiwan, China) were maintained under the procedures and guidelines provided by the Institutional Animal Care and Use Committee of the Health Research Institutes (Taiwan, China). They were maintained with free access to pellet food and water in stainless-steel cages at a temperature of 21±2° C. with a 12 h light/dark cycle.
(§2) Mice were randomly divided into five groups and treated as follows: (1) MCD diet+PG/TPSG (2) MCD diet+100 mg/kg all compounds. After 28 days, animals were sacrificed for the collection of blood for determination of plasma ALT and AST concentrations, and liver samples for H&E stain.
(§3) After 28 days, animals were sacrificed for the collection of blood for determination of plasma ALT and AST concentrations, and liver samples for H&E stain.

The next series concerns MCD diet NASH mice. The series is described as follows: Serum AST and ALT of compounds treated-NASH mice (MCD diet). It counts as in vivo, Male C57BL/6 mice. The protocol:
as §1, §2, §3

[3] abbreviates: MCD diet mice, 100 mg/kg oral, PG/TPSG (1:1).
Setting [4] is: sum of Scores of the 4 animals of the group, 100 mg/kg oral, PG/TPSG (1:1).
[5] abbreviates: MCD diet mice, 75 mg/kg oral, hydrochloride, 75 mg/kg.
Where [6] appears, read: MCD diet mice, 100 mg/kg oral (Table 3 study).
[7] abbreviates: MCD diet mice, 100 mg/kg oral (Table 3 study), hydrochloride, 100 mg/kg.
Where [8] appears, read: MCD diet mice, 150 mg/kg oral, hydrochloride, 150 mg/kg.
[9] abbreviates: MCD diet mice, 100 mg/kg oral (Table 4 study).
Where [10] appears, read: MCD diet mice, 100 mg/kg oral, PG/TPSG (1:1), 100 mg/kg.
Setting [11] is: MCD diet mice, 100 mg/kg oral once daily, 5 times a week, hydrochloride, 100 mg/kg.
Where [12] appears, read: MCD diet mice, 100 mg/kg oral, PG/TPSG (1:1), hydrochloride, 100 mg/kg.

We go through 6 compounds from patent publication US12466784B2, “Analogs of pterostilbene amino acid bearing carbonates for treating a non-alcoholic fatty liver disease and nonalcoholic steatohepatitis” (APICAL MOLECULAR BIOTECH CO., LTD., priority 2020, dated 2025).

“And” between values parts separate entries of the source, which are not always exact repeats. Identical values can stand only once.

For the compound `COc1cc(/C=C/c2ccc(OC(=O)OCCNC(=O)CN)cc2)cc(OC)c1.O=C(O)c1cccnc1` [Compound 5v, (E)-2-(2-aminoacetamido)ethyl (4-(3,5-dimethoxystyryl)phenyl) carbonate nicotinate], the “compound remaining in pH = 1.2 solution (%)” value (shortened to “compound remaining … (%)”) worked out at 100.0% in series [1] (Time 0 h); 100.6% in series [1] (Time 0.167 h); 106.8% in series [1] (Time 0.5 h); 101.0% in series [1] (Time 1 h); 103.0% in series [1] (Time 2 h); 106.9% in series [1] (Time 4 h). The “compound remaining … (%)” value in series [1] (Time 6 h) is recorded as 84.8%. The same compound displayed an Avg in series [2] (100 mg/kg oral, PG/TPSG (1:1)) of 8.00. In addition, the Steatosis in series [2] (MCD diet mice, 100 mg/kg oral once daily, 5 times a week) amounted to 3. Also, the Ballooning in series [2] (setting [3]) was 2. In addition, in series [2] (setting [3]), the Fibrosis is listed as 0. Moreover, the Inflammation in series [2] (setting [3]) came out at 3. The same compound showed a Sum in series [2] (setting [4]) of 32. Besides, the Scores in series [2] (setting [3]) is 8. In the series with MCD diet NASH mice (setting [3]), the “Serum ALT (U/L)” value is reported as 430.13 U/L. Further, the “Serum AST (U/L)” value in the series on MCD diet NASH mice (setting [3]) worked out at 610.25 U/L.
Turning to “(E)-2-(2-amino-3-methylbutanamido)ethyl (4-(3,5-dimethoxystyryl)phenyl) carbonate hydrochloride [Compound 5c]”, the “compound remaining … (%)” value in series [1] (Time 0 h) was determined as 100.0%; in series [1] (Time 0.167 h), 88.5%; in series [1] (Time 0.5 h) it was 93.2%; in series [1] (Time 1 h) it was 96.0%; in series [1] (Time 2 h) it was 91.7%; in series [1] (Time 4 h), 97.4%. In addition, the “anti-NASH/NAFLD activities, in words” value in series [2] (MCD diet mice) is listed as “significant anti-NASH/NAFLD activities”. Also, the “effect on MCD diet-induced steatohepatitis (H&E staining), in words” value (“effect … (H&E staining), in words” below) in series [2] (MCD diet mice, 100 mg/kg oral) is “prevented MCD diet-induced steatohepatitis”. Besides, the “effect on MCD diet-induced steatohepatitis (H-E staining), in words” value in series [2] (MCD diet mice, 75, 100 and 150 mg/kg oral (FIG. 1, Table 3)) is “prevented MCD diet-induced steatohepatitis”. For the same compound, the results for the Avg in series [2] (75 mg/kg oral), in series [2] (100 mg/kg oral (Table 3 study)) and in series [2] (150 mg/kg oral) were 6.2, 4.2 and 3.2, respectively. Further, the Ballooning in series [2] (MCD diet mice, 75 mg/kg oral) is 2; in series [2] (setting [7]) it was 2 (3×) and 1 (2×); in series [2] (setting [8]) it was 1 (4×) and 2. In addition, the Inflammation in series [2] (MCD diet mice, 75 mg/kg oral) turned out to be 1; in series [2] (setting [6]), 0; in series [2] (MCD diet mice, 150 mg/kg oral) it was 0. In addition, the Steastosis is 3 in series [2] (MCD diet mice, 75 mg/kg oral once daily, 5 times a week); 3 (3×) and 2 (2×) in series [2] (MCD diet mice, 100 mg/kg oral once daily, 5 times a week (Table 3 study), hydrochloride, 100 mg/kg); 2 (3×) and 1 and 3 in series [2] (MCD diet mice, 150 mg/kg oral once daily, 5 times a week, hydrochloride, 150 mg/kg). Besides, the Fibrosis is 1 and 0 (4×) in series [2] (setting [5]); 0 in series [2] (setting [6]); 0 in series [2] (MCD diet mice, 150 mg/kg oral). In addition, the Sum in series [2] (sum of Scores of the 5 animals, 75 mg/kg oral) was 31; in series [2] (sum of Scores of the 5 animals, 100 mg/kg oral (Table 3 study)) it was 21; in series [2] (sum of Scores of the 5 animals, 150 mg/kg oral), 16. The Scores in series [2] (setting [5]) is 7 and 6 (4×); in series [2] (setting [7]), 5 (3×) and 3 (2×); in series [2] (setting [8]), 3 (3×) and 2 and 5. Moreover, the “Serum ALT (U/L)” value in the series on MCD diet NASH mice (MCD diet mice, 75 mg/kg oral) is given as 164.40 U/L; in the series with MCD diet NASH mice (setting [9]) it was 92.60 U/L; with MCD diet NASH mice (setting [3]) it was 205.13 U/L; in the series with MCD diet NASH mice (MCD diet mice, 150 mg/kg oral) it was 82.80 U/L. The “Serum AST (U/L)” value in the series on MCD diet NASH mice (MCD diet mice, 75 mg/kg oral) stood at 275.00 U/L; in the series with MCD diet NASH mice (setting [9]) it was 245.80 U/L; with MCD diet NASH mice (setting [3]) it was 274.00 U/L; in the series on MCD diet NASH mice (MCD diet mice, 150 mg/kg oral), 192.00 U/L. The “effect on serum concentrations of AST and ALT, in words” value is “significantly inhibited the serum concentrations of AST and ALT” in the series on MCD diet NASH mice (MCD diet mice, 100 mg/kg oral (Table 2)); “significantly inhibited the serum concentrations of AST and ALT with dose-dependent manners” with MCD diet NASH mice (MCD diet mice, 75, 100 and 150 mg/kg oral (Table 4)).
Regarding `COc1cc(/C=C/c2ccc(OC(=O)OCCNC(=O)C(N)C(C)C)cc2)cc(OC)c1.O=C(O)c1cccnc1` (stereo not drawn) [Compound 5w, (E)-2-(2-amino-3-methylbutanamido)ethyl (4-(3,5-dimethoxystyryl)phenyl) carbonate nicotinate], the “compound remaining … (%)” value in series [1] (Time 0 h) is 100.0%; in series [1] (Time 0.167 h), 128.3%; in series [1] (Time 0.5 h), 113.4%; in series [1] (Time 1 h) it was 123.9%; in series [1] (Time 2 h) it was 128.5%; in series [1] (Time 4 h), 122.4%. Also, the “effect … (H&E staining), in words” value in series [2] (MCD diet mice, 100 mg/kg oral) is “prevented MCD diet-induced steatohepatitis”. In series [2] (100 mg/kg oral, PG/TPSG (1:1)), this compound came in with an Avg of 7.50. Besides, the Steatosis in series [2] (MCD diet mice, 100 mg/kg oral once daily, 5 times a week, 100 mg/kg) is 3 (3×) and 2. For the same compound, the Ballooning in series [2] (setting [3]) amounted to 2. The compound further gave a Fibrosis in series [2] (setting [3]) of 0. Also, the Inflammation in series [2] (setting [10]) is 2 and 3 (3×). Besides, the Sum in series [2] (setting [4]) is recorded as 30. Moreover, the Scores in series [2] (setting [10]) was 7 (2×) and 8 (2×). In addition, the “Serum ALT (U/L)” value in the series on MCD diet NASH mice (setting [3]) turned out to be 214.50 U/L. Further, the “Serum AST (U/L)” value in the series on MCD diet NASH mice (setting [3]) turned out to be 236.75 U/L.
In the case of `COc1cc(/C=C/c2ccc(OC(=O)OCCNC(=O)C(N)CO)cc2)cc(OC)c1.Cl` (stereo not drawn) [Compound 5g, (E)-2-(2-amino-3-hydroxypropanamido)ethyl (4-(3,5-dimethoxystyryl)phenyl) carbonate hydrochloride], the “effect … (H&E staining), in words” value in series [2] (MCD diet mice, 100 mg/kg oral) is listed as “prevented MCD diet-induced steatohepatitis”. This compound also yielded an Avg in series [2] (100 mg/kg oral, PG/TPSG (1:1)) of 6.5. Besides, the Steatosis in series [2] (setting [11]) is 3 (2×) and 2 (2×). In series [2] (setting [3]), this compound had a Fibrosis of 0. In addition, in series [2] (setting [12]), the Ballooning is 2 (2×) and 1 (2×); the Inflammation is 3 (2×) and 2 (2×); the Scores is 8 (2×) and 5 (2×). The same compound yielded a Sum in series [2] (setting [4]) of 26. Further, in the series on MCD diet NASH mice (setting [3]), the “Serum ALT (U/L)” value is on record as 222.13 U/L and the “Serum AST (U/L)” value turned out to be 444.25 U/L.
With `COc1cc(/C=C/c2ccc(OC(=O)OCCNC(=O)C(N)C(C)C)c(OC)c2)cc(OC)c1.Cl` (stereo not drawn) [Compound 6g, (E)-2-(2-amino-3-methylbutanamido)ethyl (4-(3,5-dimethoxystyryl)-2-methoxyphenyl) carbonate hydrochloride], in series [2] (MCD diet mice, 100 mg/kg oral), the “effect … (H&E staining), in words” value is listed as “prevented MCD diet-induced steatohepatitis”. For the same compound, the Avg in series [2] (100 mg/kg oral, PG/TPSG (1:1)) amounted to 7.75. Besides, the Steatosis in series [2] (setting [11]) is 3 (3×) and 2. In addition, in series [2] (setting [3]), the Ballooning turned out to be 2, the Fibrosis is recorded as 0 and the Inflammation is 3. The compound further returned a Sum in series [2] (setting [4]) of 31. Moreover, in series [2] (setting [12]), the Scores was 8 (3×) and 7. Besides, in the series on MCD diet NASH mice (setting [3]), the “Serum ALT (U/L)” value was 260.75 U/L and the “Serum AST (U/L)” value turned out to be 455.25 U/L.
For `COc1cc(/C=C/c2ccc(OC(=O)OCCNC(=O)C3CCCN3)cc2)cc(OC)c1.Cl` (stereo not drawn) [Compound 5t, (E)-4-(3,5-dimethoxystyryl)phenyl (2-(pyrrolidine-2-carboxamido)ethyl) carbonate hydrochloride], in series [2] (MCD diet mice, 100 mg/kg oral), the “effect … (H&E staining), in words” value was “prevented MCD diet-induced steatohepatitis”. This compound yielded an Avg in series [2] (100 mg/kg oral, PG/TPSG (1:1)) of 7.75. In addition, the Steatosis in series [2] (setting [11]) was 3 (3×) and 2. Further, in series [2] (setting [3]), the Ballooning turned out to be 2, the Fibrosis was found to be 0 and the Inflammation was 3. The compound also yielded a Sum in series [2] (setting [4]) of 31. The Scores in series [2] (setting [12]) was 8 (3×) and 7. Further, in the series with MCD diet NASH mice (setting [3]), the “Serum ALT (U/L)” value turned out to be 263.00 U/L and the “Serum AST (U/L)” value was found to be 370.25 U/L.
